Test results from the CheMixHub ionic liquid set.
± gives the uncertainty stated by the source.

Test: xn = mol fraction of the nth substance listed

Cn1cc[n+](CCC[n+]2ccn(C)c2)c1.[Br-].[Br-] + O=C[C@H](O)[C@@H](O)[C@H](O)[C@H](O)CO + O
viscosity [mPa·s], 101 kPa
Conditions	293.15 K	298.15 K	303.15 K	308.15 K	313.15 K
x1 = 0.0005066, x2 = 0.001798	1.061	0.945	0.846	0.764	0.696
x1 = 0.0005575, x2 = 0.001798	1.059	0.942	0.844	0.765	0.695
x1 = 0.0005912, x2 = 0	1.016	0.905	0.812	0.734	0.669
x1 = 0.0006805, x2 = 0	1.016	0.904	0.811	0.734	0.67
x1 = 0.0007464, x2 = 0.001797	1.065	0.947	0.848	0.768	0.698
x1 = 0.0007474, x2 = 0	1.019	0.908	0.816	0.739	0.673
x1 = 0.0009122, x2 = 0	1.025	0.913	0.82	0.74	0.675
x1 = 0.0009147, x2 = 0.001797	1.073	0.954	0.856	0.773	0.704
x1 = 0.001085, x2 = 0.001797	1.079	0.96	0.86	0.779	0.707
x1 = 0.001235, x2 = 0.001797	1.086	0.966	0.867	0.78	0.71
x1 = 0.00129, x2 = 0	1.043	0.927	0.832	0.754	0.686
x1 = 0.001332, x2 = 0.001796	1.083	0.963	0.863	0.782	0.712
x1 = 0.00144, x2 = 0	1.05	0.935	0.84	0.758	0.693
x1 = 0.001476, x2 = 0.001796	1.087	0.966	0.866	0.784	0.713
x1 = 0.001591, x2 = 0.001796	1.093	0.97	0.87	0.786	0.715
x1 = 0.001838, x2 = 0	1.066	0.948	0.85	0.768	0.7
x1 = 0.002094, x2 = 0	1.071	0.955	0.855	0.77	0.702
x1 = 0.002204, x2 = 0	1.071	0.955	0.857	0.774	0.705
x1 = 0.002491, x2 = 0	1.084	0.962	0.859	0.775	0.708

C=CC[n+]1ccn(C)c1.[Cl-] + NC(N)=O
101 kPa
Conditions	electrical conductivity, 298 K [S/m]	electrical conductivity, 308 K [S/m]	electrical conductivity, 318 K [S/m]	electrical conductivity, 328 K [S/m]	electrical conductivity, 338 K [S/m]	viscosity, 298.15 K [mPa·s]
x1 = 0.5579	0.169 ± 0.004	0.228 ± 0.005	0.287 ± 0.006	0.342 ± 0.007	0.416 ± 0.009	405 ± 20
x1 = 0.6543	0.222 ± 0.005	0.298 ± 0.006	0.372 ± 0.008	0.448 ± 0.009	0.538 ± 0.011	353 ± 16
x1 = 0.7911	0.283 ± 0.006	0.372 ± 0.008	0.464 ± 0.01	0.562 ± 0.012	0.677 ± 0.014	299 ± 13
x1 = 1	0.411 ± 0.009	0.498 ± 0.01	0.618 ± 0.013	0.736 ± 0.015	0.862 ± 0.018	255 ± 10

CCCCn1cc[n+](CCCC)c1.O=S(=O)([N-]S(=O)(=O)C(F)(F)F)C(F)(F)F + O
100 kPa, x2 = 0.1843
Conditions	viscosity [mPa·s]
308.15 K	32.12 ± 0.28
358.15 K	7.83 ± 0.07
363.15 K	7.07 ± 0.06

[Cl-].[Na+] + CCCCCCCCCCCC[N+](C)(C)C.[Br-] + O
298.15 K, 101 kPa
Conditions	electrical conductivity [S/m]
x2 = 0, x1 = 0.0001802	0.1161 ± 0.0002
x2 = 0, x1 = 0.001799	0.8806 ± 0.0018

OCC(F)(F)F + CCCC[n+]1ccn(C)c1.F[B-](F)(F)F
viscosity [mPa·s], 101 kPa
Conditions	x1 = 0.3913	x1 = 0.5788	x1 = 0.7238	x1 = 0.8247	x1 = 0.9013	x1 = 0.9587	x1 = 1
278.15 K	42.31 ± 0.9	15.82 ± 0.32	7.33 ± 0.15	4.71 ± 0.1	3.71 ± 0.08	3.42 ± 0.07	3.28 ± 0.07
283.15 K	34.09 ± 0.7	13.39 ± 0.27	6.37 ± 0.13	4.13 ± 0.08	3.25 ± 0.07	2.97 ± 0.06	2.81 ± 0.06
288.15 K	27.93 ± 0.57	11.45 ± 0.23	5.59 ± 0.11	3.66 ± 0.07	2.88 ± 0.06	2.6 ± 0.05	2.42 ± 0.05
293.15 K	23.21 ± 0.47	9.89 ± 0.2	4.95 ± 0.1	3.27 ± 0.07	2.56 ± 0.05	2.29 ± 0.05	2.11 ± 0.04
298.15 K	19.52 ± 0.4	8.63 ± 0.18	4.41 ± 0.09	2.93 ± 0.06	2.3 ± 0.05	2.03 ± 0.04	1.84 ± 0.04
303.15 K	16.61 ± 0.34	7.59 ± 0.15	3.96 ± 0.08	2.65 ± 0.05	2.07 ± 0.04	1.81 ± 0.04	1.62 ± 0.03
308.15 K	14.28 ± 0.29	6.72 ± 0.14	3.57 ± 0.07	2.41 ± 0.05	1.88 ± 0.04	1.62 ± 0.03	1.43 ± 0.03
313.15 K	12.39 ± 0.25	6 ± 0.12	3.25 ± 0.07	2.21 ± 0.05	1.71 ± 0.04	1.46 ± 0.03	1.27 ± 0.03
318.15 K	10.84 ± 0.22	5.39 ± 0.11	2.97 ± 0.06	2.02 ± 0.04	1.56 ± 0.03	1.33 ± 0.03	1.13 ± 0.02
323.15 K	9.56 ± 0.2	4.87 ± 0.1	2.72 ± 0.06	1.87 ± 0.04	1.43 ± 0.03	1.21 ± 0.03	1.02 ± 0.02
328.15 K	8.49 ± 0.17	4.42 ± 0.09	2.5 ± 0.05	1.72 ± 0.04	1.31 ± 0.03	1.1 ± 0.02	0.925 ± 0.02
333.15 K	7.59 ± 0.16	4.03 ± 0.08	2.31 ± 0.05	1.59 ± 0.03	1.21 ± 0.03	1 ± 0.02	0.824 ± 0.018

O=[N+]([O-])[O-].O=[N+]([O-])[O-].O=[N+]([O-])[O-].[Al+3] + O + CC[NH3+].O=[N+]([O-])[O-]
100 kPa
Conditions	electrical conductivity [S/m]	viscosity [mPa·s]
233 K, x1 = 0.1395, x2 = 0.5934	0.001 ± 0.001	–
243 K, x1 = 0.1395, x2 = 0.5934	0.006 ± 0.001	–
243 K, x1 = 0.2128, x2 = 0.7086	0.002 ± 0.001	–
253 K, x1 = 0.1395, x2 = 0.5934	0.025 ± 0.003	–
253 K, x1 = 0.2128, x2 = 0.7086	0.011 ± 0.001	–
263 K, x1 = 0.1395, x2 = 0.5934	0.077 ± 0.008	–
263 K, x1 = 0.2128, x2 = 0.7086	0.037 ± 0.004	–
273 K, x1 = 0.1395, x2 = 0.5934	0.18 ± 0.018	–
273 K, x1 = 0.2128, x2 = 0.7086	0.094 ± 0.009	–
283 K, x1 = 0.1395, x2 = 0.5934	0.354 ± 0.035	–
283 K, x1 = 0.2128, x2 = 0.7086	0.2 ± 0.02	–
288.15 K, x1 = 0.1395, x2 = 0.5934	–	274 ± 25
288.15 K, x1 = 0.2128, x2 = 0.7086	–	880 ± 110
293 K, x1 = 0.1395, x2 = 0.5934	0.615 ± 0.062	–
293 K, x1 = 0.2128, x2 = 0.7086	0.371 ± 0.037	–
293.15 K, x1 = 0.1395, x2 = 0.5934	–	204 ± 13
293.15 K, x1 = 0.2128, x2 = 0.7086	–	587 ± 64
298.15 K, x1 = 0.1395, x2 = 0.5934	–	153.7 ± 8.1
298.15 K, x1 = 0.2128, x2 = 0.7086	–	394 ± 36
303 K, x1 = 0.1395, x2 = 0.5934	0.974 ± 0.097	–
303 K, x1 = 0.2128, x2 = 0.7086	0.624 ± 0.062	–
303.15 K, x1 = 0.1395, x2 = 0.5934	–	116.8 ± 5
303.15 K, x1 = 0.2128, x2 = 0.7086	–	269 ± 20
308.15 K, x1 = 0.1395, x2 = 0.5934	–	89.5 ± 3.1
308.15 K, x1 = 0.2128, x2 = 0.7086	–	185 ± 11
313 K, x1 = 0.1395, x2 = 0.5934	1.43 ± 0.14	–
313 K, x1 = 0.2128, x2 = 0.7086	0.971 ± 0.097	–
313.15 K, x1 = 0.1395, x2 = 0.5934	–	69.2 ± 2.2
313.15 K, x1 = 0.2128, x2 = 0.7086	–	129.3 ± 6.1
323 K, x1 = 0.1395, x2 = 0.5934	2 ± 0.2	–
323 K, x1 = 0.2128, x2 = 0.7086	1.42 ± 0.14	–
333 K, x1 = 0.1395, x2 = 0.5934	2.66 ± 0.27	–
333 K, x1 = 0.2128, x2 = 0.7086	1.98 ± 0.2	–
343 K, x1 = 0.1395, x2 = 0.5934	3.41 ± 0.34	–
343 K, x1 = 0.2128, x2 = 0.7086	2.64 ± 0.26	–
353 K, x1 = 0.1395, x2 = 0.5934	4.25 ± 0.42	–
353 K, x1 = 0.2128, x2 = 0.7086	3.42 ± 0.34	–
363 K, x1 = 0.1395, x2 = 0.5934	5.17 ± 0.52	–
363 K, x1 = 0.2128, x2 = 0.7086	4.3 ± 0.43	–
373 K, x1 = 0.1395, x2 = 0.5934	6.16 ± 0.62	–
373 K, x1 = 0.2128, x2 = 0.7086	5.28 ± 0.53	–
